For one assay, the target named is T1, B-RAF G466V (Homo sapiens, UniProt P15056, G466V).
T1 construct: expressed in transfected cells; host or cells: T-Rex 293 cells (Invitrogen #R71007)
The assay can be described thus: Target protein degradation, assay D: T-Rex 293 cells, HA-BRAF_G466V, 384 well format. Format: cell-based. The following applies: T-Rex 293 HA-BRAF_G466V cells, 24 hours, Examples 83-269; for DC50: Assay D; for Dmax: T-REx-293, Assay D. Summed up:
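Degradation measured by high-content imaging of anti-HA immunofluorescence in fixed T-Rex 293 cells carrying inducible HA-BRAF G466V (1 ng/mL doxycycline), after 24 h PROTAC exposure at 37 °C over 300 nM–5 pM (1:3, 11 points, 0.5% DMSO). Outputs DC50 and Dmax as % of control; nuclei counts against DMSO wells gauge toxicity.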

Another assay concerns the target T2, B-RAF V600E (Homo sapiens, UniProt P15056, V600E).
T2 construct: expressed in transfected cells; host or cells: T-Rex 293 cells (Invitrogen #R71007)
The assay can be described thus: Target protein degradation, assay C: T-Rex 293 cells, HA-BRAF_V600E, 384 well format. The assay is classed as cell-based. The following applies: T-Rex 293 HA-BRAF_V600E cells, 24 hours, Examples 83-269; for DC50: Assay C; for Dmax: T-REx-293, Assay C. The gist of the method:
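After 24 h exposure to an 11-point 1:3 series (300 nM–5 pM, 0.5% DMSO), fixed T-Rex 293 cells carrying HA-BRAF V600E (induced with 1 ng/mL doxycycline) were stained anti-HA and imaged. DC50 and Dmax were derived from BRAF intensity relative to control, and cytotoxicity from nuclear counts.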

Each structure is given as a SMILES string. Some results are limits rather than exact numbers.

The values below come from patent US11957759B1, “Rapidly accelerated fibrosarcoma (RAF) degrading compounds and associated methods of use” (Arvinas Operations, Inc., priority 2022, dated 2024).

T1 sequence (P15056 whole entry G466V): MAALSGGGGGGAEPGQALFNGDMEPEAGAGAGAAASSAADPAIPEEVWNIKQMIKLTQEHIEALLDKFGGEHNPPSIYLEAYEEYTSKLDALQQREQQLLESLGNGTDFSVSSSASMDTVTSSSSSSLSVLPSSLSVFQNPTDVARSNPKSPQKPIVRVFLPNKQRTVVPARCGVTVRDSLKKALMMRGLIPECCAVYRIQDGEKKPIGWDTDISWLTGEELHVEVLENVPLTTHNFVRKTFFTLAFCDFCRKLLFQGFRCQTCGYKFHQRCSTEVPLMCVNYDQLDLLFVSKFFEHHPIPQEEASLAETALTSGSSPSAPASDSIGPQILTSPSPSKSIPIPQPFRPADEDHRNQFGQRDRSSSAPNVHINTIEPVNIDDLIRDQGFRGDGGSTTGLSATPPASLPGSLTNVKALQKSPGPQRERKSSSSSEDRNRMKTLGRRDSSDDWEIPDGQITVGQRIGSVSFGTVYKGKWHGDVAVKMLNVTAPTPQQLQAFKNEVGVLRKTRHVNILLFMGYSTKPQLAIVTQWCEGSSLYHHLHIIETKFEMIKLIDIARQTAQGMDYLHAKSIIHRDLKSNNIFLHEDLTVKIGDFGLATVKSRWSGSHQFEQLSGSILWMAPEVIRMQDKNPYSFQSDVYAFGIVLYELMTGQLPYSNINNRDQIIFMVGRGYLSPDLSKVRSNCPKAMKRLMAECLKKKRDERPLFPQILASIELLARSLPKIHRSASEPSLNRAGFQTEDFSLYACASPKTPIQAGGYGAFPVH
T2 sequence (P15056 whole entry V600E): as the sequence (P15056 whole entry G466V) above, with V466G, V600E counted along it

With `N#Cc1c(NS(=O)(=O)N2CC[C@@H](F)C2)ccc(F)c1Oc1ccc2ncn(-c3ccc(N4CCC(CN5CC6(CCN(c7ccc8c(c7)CN([C@H]7CCC(=O)NC7=O)C8=O)CC6)C5)C4)cc3)c(=O)c2c1` (stereo partly drawn) [Example 233, (3R)-N-(2-cyano-3-{[3-(4-{3-[(7-{2-[(3S)-2,6-dioxopiperidin-3-yl]-1-oxo-2,3-dihydro-1H-isoindol-5-yl}-2,7-diazaspiro[3.5]nonan-2-yl)methyl]pyrrolidin-1-yl}phenyl)-4-oxo-3,4-dihydroquinazolin-6-yl]oxy}-4-fluorophenyl)-3-fluoropyrrolidine-1-sulfonamide], the DC50 (commonly the concentration giving 50% degradation) at B-RAF G466V was in the range of 10 to 30 nM; on B-RAF V600E it was 50 to 500 nM. The greatest degradation seen (Dmax) on B-RAF G466V and on B-RAF V600E was 35 to 70% throughout.
On to `N#Cc1c(NS(=O)(=O)N2CC[C@@H](F)C2)ccc(F)c1Oc1ccc2ncn(-c3ccc(N4CC(CN5CCN(C6CCN(c7ccc8c(c7)CN(C7CCC(=O)NC7=O)C8=O)CC6)CC5)C4)cc3)c(=O)c2c1` (single isomer, unassigned) [Example 198, (3R)-N-[2-cyano-3-({3-[4-(3-{[4-(1-{2-[(3R*)-2,6-dioxopiperidin-3-yl]-1-oxo-2,3-dihydro-1H-isoindol-5-yl}piperidin-4-yl)piperazin-1-yl]methyl}azetidin-1-yl)phenyl]-4-oxo-3,4-dihydroquinazolin-6-yl}oxy)-4-fluorophenyl]-3-fluoropyrrolidine-1-sulfonamide], for which the DC50 on B-RAF G466V lay within 1 to 10 nM; at B-RAF V600E, 50 to 500 nM.
In the case of `N#Cc1c(NS(=O)(=O)N2CC[C@@H](F)C2)ccc(F)c1Oc1ccc2ncn(-c3ccc(N4CCC(CN5CCN(CC6CCN(c7ccc8c(c7)CN([C@H]7CCC(=O)NC7=O)C8=O)CC6)CC5)CC4)cc3)c(=O)c2c1` [Example 185, (3R)-N-{2-cyano-3-[(3-{4-[4-({4-[(1-{2-[(3S)-2,6-dioxopiperidin-3-yl]-1-oxo-2,3-dihydro-1H-isoindol-5-yl}piperidin-4-yl)methyl]piperazin-1-yl}methyl)piperidin-1-yl]phenyl}-4-oxo-3,4-dihydroquinazolin-6-yl)oxy]-4-fluorophenyl}-3-fluoropyrrolidine-1-sulfonamide], at B-RAF G466V, the DC50 is 10 to 30 nM and the Dmax (in general, the largest share of the target that was removed) was no more than 35%. Further, at B-RAF V600E, the 50% degradation concentration (DC50) lay within 50 to 500 nM and the maximal degradation (Dmax) fell in the range of 35 to 70%.
Turning to `N#Cc1c(NS(=O)(=O)N2CC[C@@H](F)C2)ccc(F)c1Oc1ccc2ncn(-c3ccc(N4CCC5(CC4)CN(CC4CCN(c6ccc7c(c6)CN([C@H]6CCC(=O)NC6=O)C7=O)CC4)C5)cc3)c(=O)c2c1` [Example 202, (3R)-N-(2-cyano-3-{[3-(4-{2-[(1-{2-[(3S)-2,6-dioxopiperidin-3-yl]-1-oxo-2,3-dihydro-1H-isoindol-5-yl}piperidin-4-yl)methyl]-2,7-diazaspiro[3.5]nonan-7-yl}phenyl)-4-oxo-3,4-dihydroquinazolin-6-yl]oxy}-4-fluorophenyl)-3-fluoropyrrolidine-1-sulfonamide], the DC50 is 1 to 10 nM at B-RAF G466V and 50 to 500 nM on B-RAF V600E. The Dmax on B-RAF G466V and on B-RAF V600E was 35 to 70% each time.
At B-RAF G466V, `N#Cc1c(NS(=O)(=O)N2CC[C@@H](F)C2)ccc(F)c1Oc1ccc2ncn(-c3cccc(C4CCN(CC5CCN(c6ccc7c(c6)CN([C@H]6CCC(=O)NC6=O)C7=O)CC5)C4)c3)c(=O)c2c1` (single isomer, unassigned) [Example 257, (3R)-N-{2-cyano-3-[(3-{3-[(3R*)-1-[(1-{2-[(3S)-2,6-dioxopiperidin-3-yl]-1-oxo-2,3-dihydro-1H-isoindol-5-yl}piperidin-4-yl)methyl]pyrrolidin-3-yl]phenyl}-4-oxo-3,4-dihydroquinazolin-6-yl)oxy]-4-fluorophenyl}-3-fluoropyrrolidine-1-sulfonamide] gave a DC50 of 1 to 10 nM and a Dmax of 35 to 70%. On B-RAF V600E, the 50% degradation concentration (DC50) is 50 to 500 nM and the maximal degradation (Dmax) is 35 to 70%.
